The values that follow come from patent publication US11974988B2, “Neuroprotective compositions and methods of using the same” (The Board of Supervisors of Louisiana State Univer …, priority 2018, dated 2024).

In data set [1] the test system is organotypic hippocampal slice cultures. Put plainly: Oxygen-glucose deprivation (OGD) in organotypic hippocampal slice cultures, propidium iodide staining. Type of data set: cell-based, rat. As to conditions: 20 min OGD, PI 24 h later; SKA-41 30 μM, MK-801 20 μM, riluzole 30 μM, NBQX 10 μM/AP5 50 μM. Here is the method: OGD is an in vitro model for transient cerebral ischemia. In preliminary studies, we prepared hippocampal slice cultures from P7-8 rat pups. Experiments were performed at 14 DIV, when presynaptic Glu function is maximal and synapse formation and NMDAR subunit expression have reached a developmental stage sufficient to sensitize the slice to excitotoxic injury. Propidium iodide (PI), which binds to DNA in a nonspecific manner by penetrating damaged phospholipoid bilayers, was used to assess neural injury 24 h after OGD. […] SKA-41 was present 30 min prior to OGD, during OGD and during the 24 h recovery period.

In data set [2] the test system is rats injected with kainic acid (KA). Put plainly: Kainic acid (KA) seizure model, behaviour. Format: in vivo, rat. The source says: […]. Systemic administration of the glutamate analog, kainic acid (KA), to rats produces progressive limbic seizures culminating in status epilepticus that results in neuronal loss within limbic structures in a pattern similar to that observed in human temporal lobe epilepsy.

The nature of data set [3]: Tolerability observation after i.p. dosing of SKA-41. Particulars: for tolerability: 10 mg/kg i.p., rats.

“Also recorded” adds a separate entry of the source.

As to `Nc1nc(-c2ccc(OC(F)(F)F)cc2)cs1` [SKA-41, 4-(4-(Trifluoromethoxy)phenyl)thiazol-2-amine], the “OGD-induced neural injury (PI staining)” value in data set [1] was “completely prevents PI staining; also recorded: prevents OGD-induced neural injury”. Besides, in data set [2] (SKA-41 30 mg/kg pretreatment), the “time until staring and twitching signs disappeared after KA injection” value is on record as no more than 2 h. Further, in data set [2] (rat, in vivo), the “clonic-tonic convulsions after KA” value is “clonic-tonic convulsions were not observed”. Moreover, the tolerability result is reported as “well tolerated with no overt toxicity or sedation; also recorded: well tolerated” in data set [3] and “well tolerated with no overt toxicity or sedation” in data set [3] (listed as SKA41). In addition, in data set [3] (10-30 mg/kg), the untoward effects entry is “did not observe any untoward effects”.
